{"source": "paper PMC3858832", "about": "(Journal of Controlled Release, 2013)", "key": {"[1]": {"test": "Far-UV circular dichroism pH titration, midpoint of conformational transition (pKα)", "assay_type": "physicochemical", "conditions": "far-UV CD intensity at 220 nm vs pH; peptide 30-50 μM in 5 mM Tris amine titrated with HClO4; 37 °C (310 K); average of two or more independent experiments", "source_text": "Therefore, we first investigated whether reducing hydrogen-bonding opportunities at the Dap side chain amine would improve its tolerance by cells in culture. Alkylation of the Dap primary amine may however also impact on the pKa. […] Measurement of side chain pKa in a peptide undergoing a conformational transition associated with a change in aggregation state is hindered by the large amounts of material required for potentiometric analyses and the unfavourable line broadening observed in NMR for self-associated peptides. Instead, we have observed the cooperative, pH responsive, change of conformation of cationic amphipathic peptides in aqueous solution using far-UV CD (Supp. Fig. 1B/C). LADap (Sup. Fig. 1B) and LADap(Me2) (Supp. Fig. 1C) adopt an α-helix conformation when dissolved in neutral or slightly basic aqueous solution and, when titrated with acid, an increasingly disordered conformation is observed. The CD intensity at 220 nm is considered indicative of α-helix content and can be plotted as a function of pH (Supp. Fig. 1D/E). […] Although other interactions may be expected to contribute to the pKα when compared with the pKa, an increase of the same magnitude (~ 0.6 pH units) is seen in both the pKα for the Dap rich peptide and the pKa for the model compound following dimethylation (Supp. Fig. 1D/E; Table 1).\nFar-UV CD spectra were obtained for LAH4-L1, LAH6-L1 and the Dap and mono-methyl Dap containing analogues in aqueous Tris amine buffer at various pH (Supp. Fig. 4). […] For LAH4-L1, the pKα = 5.29 ± 0.25 and is in agreement with previous work while pKα = 4.45 ± 0.25 for LAH6-L1 is substantially higher than that reported recently for LAH6 peptides of greater hydrophobicity. The response of LADap4-L1 at 6.64 ± 0.08 is substantially more basic than the histidine-containing analogue. […]\nCircular dichroism experiments - Peptides were dissolved in 5 mM Tris amine without pH adjustment at a final concentration of between 30 and 50 μM. The samples were titrated down by adding 0.3% or 1% (v/v) HClO4 solution in micro-litre amounts. ClO4- is optically […]\nby HClO4 makes a significant improvement on spectral quality in the far-UV region. CD spectra were acquired on a Chirascan™ Spectrometer (Applied Photophysics, Leatherhead, UK) with samples maintained at 310 K. For pH titration experiments, far-UV CD spectra were obtained with the samples titrated down by adding 0.3% or 1% (v/v) HClO4 solution in micro-litre amounts. Spectra were recorded from 260 to 180 nm using a 0.5 mm path length and were processed using Chirascan software where a spectrum of the peptide free solution was subtracted and Savitzky-Gorlay smoothing with a convolution width of 5 points applied.\nResults for all CD assay measurements are expressed as an average of two or more independent repeated experiments. […]\nThe pellets, containing lipid vesicles and associated peptides were transferred to Bruker 4 mm MAS rotors for NMR measurements. Lipid vesicles were also prepared in this way in the absence of peptide.\nSolid-state NMR - 2H quadrupole echo experiments for samples containing either POPC-d31 or POPS-d31 were performed at 61.46 MHz on a Bruker Avance 400 NMR"}, "[2]": {"test": "Analytical HPLC retention time as indicator of peptide hydrophobicity", "assay_type": "physicochemical", "conditions": "5-90% water/acetonitrile gradient, Waters Symmetry C8, 5 μm, 7.8 x 100 mm, Abs 215 nm", "procedure": "(§1) A further six N,N-dimethyl-Dap variant, LADap(Me2)6-A1 was prepared in an attempt to circumvent this by reducing the hydrophobicity by substituting four leucines with alanine.\nSupplementary Figure 5. Analytical HPLC of three Dap rich peptides with differing levels of alkylation. A 5-90% water/acetonitrile gradient system was used using a Waters Symmetry™ C8, 5 μm, 7.8 x 100 mm column. The N-methylation of LADap-6-L1 to LADap(Me)6-L1 reduces the retention time of the peptide marginally however N,N-dimethylation to LADap(Me2)6-L1 causes a substantial shift to longer retention time and is consistent with the insolubility of this latter peptides in aqueous media. A fourth peptide, […]\nalanine residues did improve hydrophobicity but not sufficiently to make the peptide readily soluble in […]\n(§2) (1 picture or pasted object on this page, not shown here)"}, "[3]": {"test": "Solubility in aqueous media / 50% trifluoroethanol", "assay_type": "physicochemical", "procedure": "as §1\nSupplementary Figure 6. far-UV CD spectrum of LADap(Me2)6-L1 in 50% TFE.\nA further six N,N-dimethyl-Dap variant, LADap(Me2)6-A1 was prepared in an attempt to circumvent this by reducing the hydrophobicity by substituting four leucines with alanine. While a small improvement in […]\nspectrum was obtained (Supp. Fig. 6) which indicated the desired α-helix conformation would theoretically be obtainable if it could be delivered to the endosomal membrane.\nas §2"}, "A549 cells [4]": {"system": "A549 cells", "test": "Protein content per well as measure of cytotoxicity during transfection of A549 cells", "assay_type": "cell-based, human", "conditions": "luciferase plasmid transfection, compared with LADap(Me2)", "source_text": "The pKα of LADap(Me2) is raised by N,N-dimethylation and is likely to be too high to substantially aid endosomal release; dimethylation nevertheless has beneficial effects on the nucleic acid transfer properties of the resulting peptide. […] However, the protein content of the cells, commonly used to calibrate the amount of specific luciferase activity, can be misleading. […] Accordingly, the transfection efficacies of LADap and Lipofectamine 2000™ (4:1) in this experiment are substantially overstated. When luciferase activity is plotted per well (Supp. Fig. 1H), not only is the robust and non-toxic transfection efficacy of LAH4-L1 evident, offering a 13.0 fold improvement over Lipofectamine 2000™, but also the advantages of LADap(Me2) over LADap are clear. The luciferase delivery efficacy of LADap(Me2) however was insufficient for it to be considered for siRNA delivery and further modifications were conceived.\nLuciferase Activity (light units/10 s)\nLuciferase Activity (light units/10 s/mg protein)\nMean Residue Ellipticity @220 nm (deg cm […]\nSupplementary Figure 1. […] The midpoint of the conformational transition is determined as 6.22 ± 0.16 for LADap4 (D) and 6.80 ± 0.11 for LADap(Me2)4 (E). […] Lipofectamine and LADap4 are toxic to A549 cells but the N,N-dimethylation of Dap (LADap(Me2)4) reduces toxicity and increases gene transfer efficacy despite the high pKα determined in […]"}, "[5]": {"system": "GAPDH expression in suspension monocyte THP-1 cells", "test": "siRNA-mediated silencing of GAPDH expression in suspension monocyte THP-1 cells (Western blot densitometry)", "assay_type": "cell-based, human", "conditions": "siRNA at 20 or 40 nM, peptide/siRNA 10:1 w/w, Western blot 72 h, three independent experiments", "protocol": "(§3) The abilities of the peptides to successfully mediate specific silencing of GAPDH expression were then assessed in A549 cells (Fig. 2B), MCF-7 cells (Fig. 2C), HUVEC (Fig. 3A), THP-1 cells differentiated into macrophages (Fig. 4A) and undifferentiated THP-1 cells in suspension (Fig. 4B). Specific reductions in expression of GAPDH were assessed by densitometry of Western blots where the effects of administering siRNA targeting GAPDH was compared with that of non-targeting siRNA on the expression of GAPDH as endogenous reporter and β-actin as internal toxicity/specificity control (Figs. 2D, 3B, 4C).\nCells were transfected with peptide/siRNA complexes containing GAPDH siRNA (+) or negative control siRNA (−) and β-actin served as an internal control for equal protein loading and off target effects. Densitometry results are shown for as an average of three independently repeated experiments (C). […] Vectors were prepared as for siRNA transfection experiments and the peptide to siRNA weight ratio was 10:1 in all cases.\nThe cells were transfected with Lipofectamine 2000™ at 2 μl per\nwell under the same conditions.\n(§4) siRNA transfection - A549, MCF-7 and THP-1 cells, were transfected with peptide/siRNA\ncomplexes containing 50 or 100 pmol GAPDH siRNA or negative control siRNA/well in 6- […]\nThe bound secondary antibodies were detected with ECL™ Western blotting detection […]"}, "[6]": {"system": "GAPDH expression in A549 cells", "test": "siRNA-mediated silencing of GAPDH expression in A549 cells (Western blot densitometry), with or without BALF", "assay_type": "cell-based, human", "conditions": "Western blot densitometry 72 h post transfection", "protocol": "as §3\nTo test the suitability of the peptides for future pulmonary delivery applications in vivo the ability of the peptides to mediate silencing of GAPDH expression in A549 cells was repeated in the presence of bronchoalveolar lavage fluid (BALF) as a model for airway surface liquid (ASL) (Fig. 2E/F).\nas §4\ncomplexes containing 50 or 100 pmol GAPDH siRNA or negative control siRNA/well in 6-\nwell plates, giving a final siRNA concentration of 50 or 100 nM. Cells were seeded at the\nfollowing densities; A549 and MCF-7 - 1 × 10^5 cells per well, THP-1 in suspension – 5 ×\n10^5 cells per well, differentiated THP-1 – 1 × 10^6 cells per well."}, "MCF-7 cells": {"system": "MCF-7 cells", "test": "Luciferase reporter gene transfection of MCF-7 cells", "assay_type": "cell-based, human", "conditions": "1 μg luciferase plasmid/well, 48 h", "description": "The ability of the peptides to mediate nucleic acid transfer was first assessed by monitoring the delivery of luciferase reporter gene to both A549 and MCF-7 human breast cancer cells (Fig. 2A).\n(§5) Further Materials - Dulbecco’s modified eagle medium (DMEM), RPMI-1640 medium,\n(§6) Opti-MEM 1 reduced serum medium, antibiotic-antimycotic liquid, fetal bovine serum (FBS)\n(§7) and Lipofectamine 2000™ were purchased from Invitrogen (CA, USA). The luciferase assay\n(§8) system was purchased from Promega (Madison, WI, USA).\nPlasmid DNA (gWIZ™ Luciferase) was\n(§9) Cell culture and DNA transfection - A549, MCF-7 and THP-1 cells were obtained from\n(§10) ATCC (Manassas, VA, USA). The cells were maintained at 5% CO2, 37°C in DMEM\n(§11) supplemented with 10% FBS, 100 units/ml penicillin, 100 μg/ml streptomycin and 0.25\n(§12) μg/ml amphotericin B. The cells were subcultured once weekly. Cells were transfected with\n(§13) peptide/DNA complexes at 1 μg luciferase /well in 24-well plates and with peptide to DNA\n(§14) seeding density was 5 × 10^4 cells per well. The complexes were prepared in Opti-MEM I\nreduced serum medium. After 4 hours of incubation at 37°C, the cells were washed with PBS\nand fresh DMEM supplemented with 10% FBS were added to the cells. After 48 hours, the\nluciferase expression was detected using the luciferase assay system according to the\nmanufacturer’s protocol. The cells were transfected with Lipofectamine 2000™ at 2 μl per […]"}, "A549 cells [7]": {"system": "A549 cells", "test": "Luciferase reporter gene transfection of A549 cells", "assay_type": "cell-based, human", "conditions": "light units per well", "description": "The ability of the peptides to mediate nucleic acid transfer was first assessed by monitoring the delivery of luciferase reporter gene to both A549 and MCF-7 human breast cancer cells (Fig. 2A). Lipofectamine 2000™ was used here as a benchmark and at an optimised volume to weight DNA ratio of 2:1 to minimise toxicity seen in the earlier experiments (Supp. Fig. 1H).\nas §5, §6, §7, §8\nPlasmid DNA (gWIZ™ Luciferase) was\nas §9, §10, §11, §12, §13, §14\nreduced serum medium. After 4 hours of incubation at 37°C, the cells were washed with PBS […]\nluciferase expression was detected using the luciferase assay system according to the […]"}}, "note": "Where no end group is shown, it is not given here.", "data": [{"substance": "KKLAXALXLLALLWLXLAXALKKA-NH2 [LADap(Me2), 24-residue cationic amphipathic peptide with four N,N-dimethyl-Dap residues]", "values": [{"measurement": "pKα at 37 °C (midpoint of the main conformational transition)", "setting": "[1]", "result": "6.80 ± 0.11"}]}, {"substance": "KKALLAXALXLLALLALXLAXALKKA-NH2 [LADap4-L1, LAH4-L1 derivative comprising four Dap residues]", "values": [{"measurement": "pKα at 37 °C (midpoint of the main conformational transition)", "setting": "[1]", "result": "6.64 ± 0.08"}]}, {"substance": "KKXLLAXALXALLALLAXLAXALKXK-NH2 [LADap(Me2)6-A1, more hydrophilic six N,N-dimethyl-Dap variant, four leucines substituted with alanine]", "values": [{"measurement": "HPLC retention time (measure of hydrophobicity)", "setting": "[2]", "result": 28.37, "unit": "min"}, {"measurement": "solubility in aqueous media", "setting": "[3]", "result": "insufficiently soluble"}]}, {"substance": "KKLAXALXLLALLWLXLAXALKKA-NH2 [LADap, 24-residue cationic amphipathic peptide with four Dap residues]", "values": [{"measurement": "cytotoxicity by protein content of wells", "setting": "A549 cells [4]", "result": "notably more toxic"}, {"measurement": "pKα at 37 °C (midpoint of the main conformational transition)", "setting": "[1]", "result": "6.22 ± 0.16"}]}, {"substance": "KKXLLAXLLXLLALLALXLLXALKXK-NH2 [LADap(Me2)6-L1, 26-residue peptide with six N,N-dimethyl-Dap residues]", "values": [{"measurement": "solubility in 50% trifluoroethanol", "setting": "[3]; 50% trifluoroethanol", "result": "soluble in 50% trifluoroethanol"}, {"measurement": "solubility in aqueous media", "setting": "[3]", "result": "insoluble in aqueous media"}]}, {"substance": "KKXLLAXLLXLLALLALXLLXALKXK-NH2 [LADap(Me)6-L1, 26-residue peptide with six N-methyl Dap residues]", "values": [{"measurement": "reduction of GAPDH expression", "setting": "[5]", "result": "92.3 ± 3.7", "unit": "%"}, {"measurement": "reduction of GAPDH expression (silencing)", "setting": "[6]; Opti-MEM I", "result": "88.0 ± 6.8", "unit": "%"}]}, {"substance": "KKLAHALHLLALLWLHLAHALKKA-NH2 [reference compound]", "values": [{"measurement": "pKα at 37 °C (midpoint of the main conformational transition)", "setting": "[1]", "result": 5.33}]}, {"substance": "KKALLAXALXLLALLALXLAXALKKA-NH2 [LADap(Me)4-L1, LAH4-L1 derivative comprising four N-methylated Dap residues]", "values": [{"measurement": "fold improvement in luciferase expression over LADap4-L1", "setting": "MCF-7 cells", "result": 4.1, "unit": "fold"}, {"measurement": "fold improvement in luciferase expression over LAH4-L1", "setting": "MCF-7 cells", "result": 2.0, "unit": "fold"}, {"measurement": "pKα at 37 °C (midpoint of the main conformational transition)", "setting": "[1]", "result": "6.62 ± 0.04"}]}, {"substance": "KKXLLAXLLXLLALLALXLLXALKXK-NH2 [LADap6-L1, 26-residue peptide with six Dap residues]", "values": [{"measurement": "pKα at 37 °C (midpoint of the main conformational transition)", "setting": "[1]", "result": "5.67 ± 0.17"}]}, {"substance": "KKALLAHALHLLALLALHLAHALKKA-NH2 [LAH4-L1, reference compound]", "values": [{"measurement": "reduction of GAPDH expression (silencing)", "setting": "[6]; 50% BALF", "result": "29.4 ± 11.8", "unit": "%"}, {"measurement": "reduction of GAPDH expression (silencing)", "setting": "[6]; Opti-MEM I", "result": "73.5 ± 3.7", "unit": "%"}, {"measurement": "fold improvement in luciferase activity per well over Lipofectamine 2000 (4:1)", "setting": "A549 cells [7]", "result": 13.0, "unit": "fold"}, {"measurement": "pKα at 37 °C (midpoint of the main conformational transition)", "setting": "[1]", "result": "5.29 ± 0.25"}]}, {"substance": "KKHLLAHLLHLLALLALHLLHALKHK-NH2 [LAH6-L1]", "values": [{"measurement": "pKα at 37 °C (midpoint of the main conformational transition)", "setting": "[1]", "result": "4.45 ± 0.25"}]}]}
